“Also recorded” adds a separate entry of the source. Like-named read-outs stand apart in the source and are kept apart here.
How the values were obtained:
human MRP4 = biological target: T1, human MRP4 (Homo sapiens, UniProt O15439); test: Intracellular accumulation in Saos2-MRP4 cells vs Saos2-pcDNA3.1; conditions: Saos2-MRP4 vs Saos2-pcDNA3.1, 0.5 μg/mL, 37°C
T1 sequence (O15439 1-1325): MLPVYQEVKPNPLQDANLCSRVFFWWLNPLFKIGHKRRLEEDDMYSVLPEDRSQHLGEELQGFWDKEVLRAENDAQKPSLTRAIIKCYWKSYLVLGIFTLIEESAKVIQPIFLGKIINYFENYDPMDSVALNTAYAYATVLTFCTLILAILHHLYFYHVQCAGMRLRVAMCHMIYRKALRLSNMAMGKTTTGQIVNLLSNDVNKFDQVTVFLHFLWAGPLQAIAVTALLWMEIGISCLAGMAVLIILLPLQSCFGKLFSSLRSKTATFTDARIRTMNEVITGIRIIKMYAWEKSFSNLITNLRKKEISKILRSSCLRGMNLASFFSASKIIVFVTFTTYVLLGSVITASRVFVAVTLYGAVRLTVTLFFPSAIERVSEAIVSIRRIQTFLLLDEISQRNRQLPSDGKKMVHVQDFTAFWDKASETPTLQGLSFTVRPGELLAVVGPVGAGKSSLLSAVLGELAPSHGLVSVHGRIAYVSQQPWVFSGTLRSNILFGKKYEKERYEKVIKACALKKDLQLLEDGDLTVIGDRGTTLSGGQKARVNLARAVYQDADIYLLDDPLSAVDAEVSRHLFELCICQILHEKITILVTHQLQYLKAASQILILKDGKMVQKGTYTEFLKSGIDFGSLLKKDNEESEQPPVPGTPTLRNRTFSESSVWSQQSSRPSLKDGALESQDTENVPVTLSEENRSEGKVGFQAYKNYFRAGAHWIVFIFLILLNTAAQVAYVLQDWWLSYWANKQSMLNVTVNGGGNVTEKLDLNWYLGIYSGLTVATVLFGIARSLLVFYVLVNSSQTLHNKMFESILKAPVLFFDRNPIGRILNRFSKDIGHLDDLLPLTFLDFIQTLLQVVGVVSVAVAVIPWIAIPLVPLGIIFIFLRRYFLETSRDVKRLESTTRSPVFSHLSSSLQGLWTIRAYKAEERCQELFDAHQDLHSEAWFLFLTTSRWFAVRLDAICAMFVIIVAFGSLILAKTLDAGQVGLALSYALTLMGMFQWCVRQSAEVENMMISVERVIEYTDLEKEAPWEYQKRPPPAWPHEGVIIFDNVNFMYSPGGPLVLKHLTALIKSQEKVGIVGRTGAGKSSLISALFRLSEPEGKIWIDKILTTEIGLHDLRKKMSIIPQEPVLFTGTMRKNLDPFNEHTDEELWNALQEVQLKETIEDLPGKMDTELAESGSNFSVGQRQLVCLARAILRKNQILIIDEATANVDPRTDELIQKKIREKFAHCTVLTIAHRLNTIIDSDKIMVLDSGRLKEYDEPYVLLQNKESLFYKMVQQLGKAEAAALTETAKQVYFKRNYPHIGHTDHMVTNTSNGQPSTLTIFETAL

[1] = assay type: in vivo, mouse; conditions: for Mean AUC0-24,Plasma compared to wild-type mice: mouse, in vivo, po, 50 mg/kg
[2] = system: P-gp (Mdr1a/b) and Bcrp1/Abcg2; test: in vivo; conditions: mouse, brain ECF (relative to unbound plasma), po, 50 mg/kg
Mrp4/Abcc4 [3] = test: in vivo; conditions: mouse, brain ECF (relative to unbound plasma), po, 50 mg/kg
in vitro = conditions: mouse, plasma
Bcrp1/Abcg2 [4] = test: in vivo; conditions: mouse, brain ECF (relative to unbound plasma), po, 50 mg/kg
OAT2 = biological target: T2, OAT2 (Homo sapiens, UniProt Q9Y694); test: Uptake in HEK-293 cells transfected with OAT2 vs empty vector; assay type: in vitro ADME; conditions: HEK-293/OAT2
T2 sequence (Q9Y694 1-548): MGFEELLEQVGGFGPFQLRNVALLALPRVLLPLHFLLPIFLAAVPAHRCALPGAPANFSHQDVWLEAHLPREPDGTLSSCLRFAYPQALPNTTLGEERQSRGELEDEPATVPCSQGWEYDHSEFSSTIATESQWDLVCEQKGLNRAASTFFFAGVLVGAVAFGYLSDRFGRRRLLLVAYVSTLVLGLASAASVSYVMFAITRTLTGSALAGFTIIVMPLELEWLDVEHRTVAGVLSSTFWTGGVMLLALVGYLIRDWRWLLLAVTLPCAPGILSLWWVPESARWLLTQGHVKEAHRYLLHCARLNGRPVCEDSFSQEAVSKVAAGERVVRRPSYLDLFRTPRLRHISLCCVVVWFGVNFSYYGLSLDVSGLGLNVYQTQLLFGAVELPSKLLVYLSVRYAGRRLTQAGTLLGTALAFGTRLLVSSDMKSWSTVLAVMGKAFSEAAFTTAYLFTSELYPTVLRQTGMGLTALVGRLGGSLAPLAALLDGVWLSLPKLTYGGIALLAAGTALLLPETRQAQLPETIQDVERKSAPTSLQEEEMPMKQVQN

human ABCB1 (P-gp/MDR1) = human ABCB1 (P-gp/MDR1) (Homo sapiens, UniProt P08183); test: Intracellular accumulation in LLCPK1-MDR1 cells vs LLCPK1 cells
human ABCB1 (P-gp/MDR1), sequence (P08183 whole entry): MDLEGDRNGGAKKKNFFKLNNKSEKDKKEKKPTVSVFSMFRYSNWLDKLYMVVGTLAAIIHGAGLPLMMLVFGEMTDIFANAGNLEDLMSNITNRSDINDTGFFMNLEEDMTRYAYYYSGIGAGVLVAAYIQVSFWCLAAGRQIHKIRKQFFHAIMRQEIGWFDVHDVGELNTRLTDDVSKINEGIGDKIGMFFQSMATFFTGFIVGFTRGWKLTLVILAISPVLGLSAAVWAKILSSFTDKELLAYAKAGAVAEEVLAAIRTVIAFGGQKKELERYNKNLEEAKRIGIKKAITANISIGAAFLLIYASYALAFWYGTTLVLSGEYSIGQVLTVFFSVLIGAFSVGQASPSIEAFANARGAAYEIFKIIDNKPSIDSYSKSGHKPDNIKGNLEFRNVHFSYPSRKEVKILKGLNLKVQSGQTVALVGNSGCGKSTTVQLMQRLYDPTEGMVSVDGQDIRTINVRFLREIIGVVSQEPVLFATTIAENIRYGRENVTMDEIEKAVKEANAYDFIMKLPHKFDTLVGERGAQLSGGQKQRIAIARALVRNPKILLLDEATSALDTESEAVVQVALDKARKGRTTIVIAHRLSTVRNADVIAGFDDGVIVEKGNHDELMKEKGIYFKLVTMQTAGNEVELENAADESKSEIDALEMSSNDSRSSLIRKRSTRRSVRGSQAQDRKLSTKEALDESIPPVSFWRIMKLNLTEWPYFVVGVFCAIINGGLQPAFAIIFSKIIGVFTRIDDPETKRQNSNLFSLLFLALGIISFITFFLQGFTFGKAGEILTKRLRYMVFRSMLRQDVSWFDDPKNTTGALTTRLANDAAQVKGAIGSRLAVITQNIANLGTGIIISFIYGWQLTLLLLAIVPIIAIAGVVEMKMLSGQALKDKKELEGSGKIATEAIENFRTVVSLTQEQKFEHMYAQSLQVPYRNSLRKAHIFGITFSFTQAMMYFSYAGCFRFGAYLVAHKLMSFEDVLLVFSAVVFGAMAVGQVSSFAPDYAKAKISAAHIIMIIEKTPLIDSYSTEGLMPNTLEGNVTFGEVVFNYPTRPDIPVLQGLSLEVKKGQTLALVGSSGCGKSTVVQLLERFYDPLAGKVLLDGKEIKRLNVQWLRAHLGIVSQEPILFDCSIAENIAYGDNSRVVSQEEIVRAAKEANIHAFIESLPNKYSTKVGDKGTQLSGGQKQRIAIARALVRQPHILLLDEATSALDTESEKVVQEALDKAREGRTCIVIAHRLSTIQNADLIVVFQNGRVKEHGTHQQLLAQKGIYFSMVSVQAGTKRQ

[5] = system: P-gp (Mdr1a/b) and Bcrp1/Abcg2; conditions: mouse, in vivo
Bcrp1/Abcg2 [6] = conditions: mouse, in vivo
Mrp4/Abcc4 [7] = test: Brain microdialysis; conditions: Abcc4−/− mice, 50 mg/kg oral erlotinib, mean ± SD
[8] = mouse, in vivo
P-gp (Mdr1a/b) = conditions: mouse, in vivo, po, 50 mg/kg

Row | Structure (SMILES) | Intracellular accumulation vs control cells (human MRP4) | Mean AUC0-24,Plasma compared to wild-type mice ([1]; Abcc4−/−) | Mean AUC0-24,Plasma compared to wild-type mice ([1]; Abcg2−/−) | Mean AUC0-24,Plasma compared to wild-type mice ([1]; Mdr1a/b−/−) | Mean AUC0-24,Plasma compared to wild-type mice ([1]; Mdr1a/b−/−Abcg2−/−) | Tolerability of single dose ([1]; single oral dose 50 mg/kg, all strains) | Kp [2] | Kp (Mrp4/Abcc4 [3]) | fraction unbound at 10 h (in vitro) | Kp (Bcrp1/Abcg2 [4]) | Transport by transporter (OAT2) | Effect of elacridar on intracellular accumulation (human ABCB1 (P-gp/MDR1); LLCPK1-MDR1 cells, pre-incubation 30 minutes with elacridar (4 μM)) | Intracellular accumulation vs control cells (human ABCB1 (P-gp/MDR1); LLCPK1-MDR1 vs LLCPK1, 0.5 μg/mL, 37°C) | Brain penetration relative to wild-type mice [5] | Brain penetration relative to wild-type mice (Bcrp1/Abcg2 [6]) | PBrain (brain ECF-to-unbound plasma AUC0-24 ratio) (Mrp4/Abcc4 [7]) | Penetration of unbound drug from plasma across the BBB [8] | PBrain (brain ECF-to-unbound plasma AUC0-24 ratio) ([8]; po, 50 mg/kg) | PBrain (brain ECF-to-unbound plasma AUC0-24 ratio) (P-gp (Mdr1a/b))
1 | C#Cc1cccc(Nc2ncnc3cc(OCCOC)c(OCCOC)cc23)c1 [erlotinib, Erlotinib] | did not show a significant difference | 0.9 fold | 1.25 fold | 0.9 fold | 1.3 fold | tolerated well | 0.7 ± 0.26 | 0.32 ± 0.24 | 0.048 | 1.4 ± 0.9 | not found to transport | – | – | – | – | – | – | – | –
2 | C#Cc1cccc(Nc2ncnc3cc(OCCOC)c(OCCO)cc23)c1 [OSI-420] | did not show a significant difference | – | – | – | – | – | – | – | – | – | – | significantly increased | lower accumulation; also recorded: significantly reduced | 4 fold | 7 fold | 0.08 ± 0.06 | 7% | 0.07±0.02 | 0.04±0.02

— publication PMC3017236 (Clinical cancer research : an official journal of the …, 2010)
